From article PMC8578705 (Cell Reports, 2021)

Legend:
IP3R1 (HEK-IP3R1 cells) = molecular target: T1, IP3R1 (HEK-IP3R1 cells) (Rattus norvegicus, UniProt P29994); assay: Ca2+ release from permeabilized HEK-IP3R1 cells; format: cell-based; conditions: at the concentrations used (heparin 10 mg/mL, dequalinium 50 μM, 2-APB 125 μM), permeabilized HEK-IP3R1 cells
T1 construct: expressed in transfected cells
Protocol: Fluorescence, which is approximately linearly related to ER free [Ca^2+] […] Ca^2+-free CLM comprised: 20 mM NaCl, 140 mM KCl, 1 mM EGTA, 20 mM PIPES, 2 mM MgCl2, pH 7.0. […] MgATP (1.5 mM) was added to initiate Ca^2+ uptake, and when the ER had loaded to steady state with Ca^2+ (∼150 s), ligands were added. Responses to the ligands show ER Ca^2+ contents as either time courses or, in summary results, as the Ca^2+ content recorded 20 s after addition of the stimulus. The distribution of samples across 96-well plates was varied between experiments to avoid any systematic ‘position-related’ artifacts. HEK-G-CEPIA1er cells were permeabilized and assayed as described for Mag-fluo 4-loaded cells.
For equilibrium binding and concentration-effect relationships, results from each experiment were fitted to Hill equations (PRISM) from which pIC50 (-log of half-maximal inhibitory concentration) or pEC50 (-log of half-maximally effective concentration) values were determined.

SERCAs = assay: Ca2+ uptake by the intracellular stores of permeabilized HEK-IP3R1 cells; format: cell-based, Homo sapiens; conditions: heparin 10 mg/mL
Protocol: Figure S6. Effects of heparin, 2-APB and dequalinium on IP3Rs and Ca2+ uptake by intracellular […]
Related to Figures 5 and 6.
(A) Structures of the antagonists used.
CLM at 20 °C. Mean ± SEM, n = 3.
(C-F) Permeabilized HEK-IP3R1 cells were loaded with Ca2+, and SERCA was then inhibited with CPA (10 μM) before addition of DMSO (1% v/v; C) or dequalinium (10-100 μM, D-F), and then the indicated […]
Mean of 2 replicates, typical of 5 experiments.
(G) Summary results (mean ± SEM, n = 5, each with duplicate determinations) show Ca2+ released by […]
ER Ca2+ content was measured 20
(H-J) Similar analyses of the effects of heparin (10 mg/mL, I) or 2-APB (125 μM, J). Means of 2 replicates, typical of 3-5 experiments.
(K) Effects of dequalinium (50 μM), heparin (10 mg/mL) or 2-APB (125 μM) on Ca2+ uptake by the intracellular stores of permeabilized HEK-IP3R1 cells. Mean ± SD of 4-6 replicates, typical of 4 […]
(L) and the rate of Ca2+ uptake (M). ER Ca2+ content was measured 180 s after addition of ATP (L).
Mean ± SEM, n = 4, each with 4-6 determinations. ****P < 0.0001, ***P < 0.001, *P < 0.05 one-way ANOVA with Bonferroni's test relative to control.

CFP-TRPML1 = molecular target: T2, CFP-TRPML1 (Homo sapiens, UniProt Q9GZU1); assay: ER Ca2+ release from permeabilized HEK cells expressing CFP-TRPML1; format: cell-based
T2 construct: host or cells: HEK cells, transient transfection
Description: Figure 4 Neither ER reorganization nor luminal Ca^2+ mediates quantal Ca^2+ release (A) Effects of the indicated concentrations of ML-SA1 on the ER Ca^2+ content of permeabilized HEK cells expressing CFP-TRPML1. (B) Semi-logarithmic plots show mono-exponential loss of ER Ca^2+ after treatment with ML-SA1. Results (A and B) are typical of four experiments, each with duplicate determinations. Summary results are in Figure S5B. (C and D) Permeabilized DT40-IP3R1 cells were loaded to steady state with Ca^2+ before addition of thapsigargin (TG, 1 μM) to inhibit SERCAs. […] Results are typical of 29–36 experiments. […] See also Figure S5.
Incubation of cells with the acetoxymethylester (AM) of Mag-fluo 4 traps low-affinity forms of the indicator ( KdCa = 1.15 mM measured in situ) within the ER. Fluorescence, which is approximately linearly related to ER free [Ca^2+] (since [Ca^2+]ER < KdCa ), can then be used, without further calibration, to reliably report free [Ca^2+] within the ER lumen ([Rossi and Taylor, 2020]). The ER of DT40 or HEK293 cells was loaded with indicator by incubating cells with Mag-fluo 4 AM (20 μM, 60 min, 22°C) in HEPES-buffered saline (HBS: 135 mM NaCl, 5.9 mM KCl, 11.6 mM HEPES, 1.5 mM CaCl2, 11.5 mM glucose, 1.2 mM MgCl2, pH 7.3) as described ([Rossi et al., 2009]). […]

[1] = system: mock-transfected HEK cells; assay: ER Ca2+ release from permeabilized mock-transfected HEK cells; format: cell-based, Homo sapiens; conditions: ML-SA1 0-100 μM
Protocol: Figure S5. Evidence that over-expressed TRPML1 releases Ca2+ from ER, and that erlin 2 does not mediate quantal Ca2+ release
Ca2+ uptake into the ER of permeabilized HEK cells was initiated by addition of ATP (1.5 mM), before adding CPA (10 μM) and then the indicated […]
concentration of ML-SA1 (0-100 μM).
(B) Summary results from experiments similar to those shown in Figure 4A show half-times (t1/2) for loss of ER Ca2+ evoked by the indicated concentrations of ML-SA1 (mean ± SEM, n = 4, each with 2 […]
(C) Addition of ATP (1.5 mM) to permeabilized HEK cells stimulates Ca2+ uptake into the ER, reported by the increase in Mag-fluo 4 fluorescence. The response is abolished by CPA (10 µM) added 60 s before ATP. Mean ± SEM, n = 4, each with 2 replicates. RFU, relative fluorescence units.
(D) Permeabilized HEK cells expressing CFP-TRPML1 were treated (60 min) with vehicle (DMSO), bafilomycin A1 (1 µM to inhibit the lysosomal H+ pump) or FCCP (10 µM to dissipate H+ gradients) before addition of ATP (1.5 mM) to initiate Ca2+ uptake. After addition of CPA (10 μM), ML-SA1 (30 µM) was added where indicated. Mean ± SD of 3 replicates. […]
(F) TIRFM images show expression of CFP-TRPML1 and EGFP-IP3R1 in HEK cells expressing both proteins, typical of 3 independent experiments (~10 cells in each). […] It was impracticable, when most CFP-TRPML1 is lysosomal, to quantify any colocalization with IP3Rs. […]

T1 sequence (P29994 1-2735 isoform P29994-2): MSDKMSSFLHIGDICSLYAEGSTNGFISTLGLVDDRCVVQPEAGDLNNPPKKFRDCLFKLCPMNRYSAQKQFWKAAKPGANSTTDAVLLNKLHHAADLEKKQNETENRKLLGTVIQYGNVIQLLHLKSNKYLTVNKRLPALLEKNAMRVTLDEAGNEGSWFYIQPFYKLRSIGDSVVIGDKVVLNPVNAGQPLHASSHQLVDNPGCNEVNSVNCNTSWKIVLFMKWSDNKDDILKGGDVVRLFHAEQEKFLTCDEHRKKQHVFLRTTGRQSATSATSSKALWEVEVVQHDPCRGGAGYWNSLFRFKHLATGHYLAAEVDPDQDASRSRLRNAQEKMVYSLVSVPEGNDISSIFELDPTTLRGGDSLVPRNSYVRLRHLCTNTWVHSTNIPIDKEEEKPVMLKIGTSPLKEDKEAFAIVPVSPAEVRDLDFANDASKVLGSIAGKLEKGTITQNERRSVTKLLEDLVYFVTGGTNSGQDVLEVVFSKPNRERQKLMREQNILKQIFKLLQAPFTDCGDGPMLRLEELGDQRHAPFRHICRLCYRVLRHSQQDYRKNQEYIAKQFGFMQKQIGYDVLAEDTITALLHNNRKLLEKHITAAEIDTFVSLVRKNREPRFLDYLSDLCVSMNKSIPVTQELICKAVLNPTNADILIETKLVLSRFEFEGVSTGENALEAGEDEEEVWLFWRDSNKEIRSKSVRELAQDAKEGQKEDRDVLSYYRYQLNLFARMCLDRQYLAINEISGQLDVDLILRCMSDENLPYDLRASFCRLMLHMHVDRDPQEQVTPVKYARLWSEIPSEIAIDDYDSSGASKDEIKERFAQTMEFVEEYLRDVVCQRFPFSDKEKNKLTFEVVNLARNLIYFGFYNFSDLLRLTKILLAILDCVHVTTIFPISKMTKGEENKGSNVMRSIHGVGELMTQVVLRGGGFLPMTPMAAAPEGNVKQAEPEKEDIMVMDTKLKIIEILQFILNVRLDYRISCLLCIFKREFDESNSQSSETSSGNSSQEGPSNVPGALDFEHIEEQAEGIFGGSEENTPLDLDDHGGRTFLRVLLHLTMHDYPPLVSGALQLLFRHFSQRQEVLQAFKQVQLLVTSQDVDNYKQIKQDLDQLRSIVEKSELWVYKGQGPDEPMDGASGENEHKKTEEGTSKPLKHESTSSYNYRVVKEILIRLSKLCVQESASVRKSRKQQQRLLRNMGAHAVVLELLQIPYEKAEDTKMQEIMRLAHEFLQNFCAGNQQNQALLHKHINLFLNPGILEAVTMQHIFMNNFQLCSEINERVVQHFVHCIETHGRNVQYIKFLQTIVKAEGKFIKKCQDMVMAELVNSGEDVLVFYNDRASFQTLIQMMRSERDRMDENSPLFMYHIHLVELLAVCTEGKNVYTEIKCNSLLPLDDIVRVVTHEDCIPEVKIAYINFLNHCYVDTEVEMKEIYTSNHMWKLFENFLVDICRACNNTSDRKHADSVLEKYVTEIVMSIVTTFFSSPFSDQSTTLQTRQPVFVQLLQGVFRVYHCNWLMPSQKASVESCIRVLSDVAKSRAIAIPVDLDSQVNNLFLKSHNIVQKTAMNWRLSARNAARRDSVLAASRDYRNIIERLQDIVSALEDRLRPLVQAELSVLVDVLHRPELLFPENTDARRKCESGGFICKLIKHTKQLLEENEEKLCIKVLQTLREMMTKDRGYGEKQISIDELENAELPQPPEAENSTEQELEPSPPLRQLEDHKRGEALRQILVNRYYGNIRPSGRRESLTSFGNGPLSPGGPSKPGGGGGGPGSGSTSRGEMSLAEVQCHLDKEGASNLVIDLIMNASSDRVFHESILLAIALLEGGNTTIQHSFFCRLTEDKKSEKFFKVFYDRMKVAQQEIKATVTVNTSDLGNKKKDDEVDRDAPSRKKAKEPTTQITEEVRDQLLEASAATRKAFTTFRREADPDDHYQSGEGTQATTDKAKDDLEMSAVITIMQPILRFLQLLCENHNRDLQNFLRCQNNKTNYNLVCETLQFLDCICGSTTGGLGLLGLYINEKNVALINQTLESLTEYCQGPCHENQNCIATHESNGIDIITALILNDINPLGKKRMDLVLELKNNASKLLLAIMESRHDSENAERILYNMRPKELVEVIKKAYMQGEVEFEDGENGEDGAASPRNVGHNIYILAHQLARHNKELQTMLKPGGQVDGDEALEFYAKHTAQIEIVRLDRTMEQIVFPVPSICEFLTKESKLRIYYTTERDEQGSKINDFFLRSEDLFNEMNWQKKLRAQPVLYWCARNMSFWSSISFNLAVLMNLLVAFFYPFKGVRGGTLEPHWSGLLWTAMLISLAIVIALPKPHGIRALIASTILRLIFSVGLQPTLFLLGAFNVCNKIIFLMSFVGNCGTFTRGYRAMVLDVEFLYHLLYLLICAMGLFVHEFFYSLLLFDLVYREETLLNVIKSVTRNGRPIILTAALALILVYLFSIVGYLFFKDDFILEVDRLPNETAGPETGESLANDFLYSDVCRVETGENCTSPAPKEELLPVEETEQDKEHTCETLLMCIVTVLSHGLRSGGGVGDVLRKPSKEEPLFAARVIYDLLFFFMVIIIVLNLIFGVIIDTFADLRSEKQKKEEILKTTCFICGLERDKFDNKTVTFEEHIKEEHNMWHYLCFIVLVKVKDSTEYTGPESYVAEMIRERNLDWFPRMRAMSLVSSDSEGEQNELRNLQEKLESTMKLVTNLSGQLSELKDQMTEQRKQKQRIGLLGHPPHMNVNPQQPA
T2 sequence (Q9GZU1 whole entry): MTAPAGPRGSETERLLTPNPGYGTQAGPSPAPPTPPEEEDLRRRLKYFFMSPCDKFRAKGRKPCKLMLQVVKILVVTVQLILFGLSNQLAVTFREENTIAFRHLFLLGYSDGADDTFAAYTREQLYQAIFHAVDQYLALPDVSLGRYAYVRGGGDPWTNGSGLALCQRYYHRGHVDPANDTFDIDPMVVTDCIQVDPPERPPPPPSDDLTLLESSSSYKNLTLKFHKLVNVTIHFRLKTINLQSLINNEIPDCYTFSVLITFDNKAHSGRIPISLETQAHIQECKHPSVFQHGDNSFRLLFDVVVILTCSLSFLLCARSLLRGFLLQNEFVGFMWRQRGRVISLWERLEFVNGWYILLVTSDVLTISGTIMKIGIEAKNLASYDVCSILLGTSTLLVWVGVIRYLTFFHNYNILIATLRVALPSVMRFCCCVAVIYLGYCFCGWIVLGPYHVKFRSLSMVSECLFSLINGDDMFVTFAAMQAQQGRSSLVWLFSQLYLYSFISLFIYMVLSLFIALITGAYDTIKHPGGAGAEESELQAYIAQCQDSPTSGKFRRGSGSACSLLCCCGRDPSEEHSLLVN

block of IP3-evoked Ca2+ release (IP3R1 (HEK-IP3R1 cells))	Ca2+ release from the ER (CFP-TRPML1)	Substance	effect on SERCAs (Ca2+ uptake) (SERCAs)	response to ML-SA1 [1]
completely	–	Heparin, sodium salt	partial inhibition	–
–	concentration-dependent Ca^2+ release	ML-SA1	–	do not respond
